Blank lines part the entries; values can stand above or below the molecule they belong to.
Assays:
[1] = Cytotoxicity against cat CRFK cells assessed as cell viability at 10 uM after 24 hrs by MTT assay; type: cell-based, Felis catus; settings: read-out: Activity
[2] = Cytotoxicity against cat CRFK cells assessed as cell viability after 7 days by MTT assay; type: cell-based, Felis catus; settings: for CC50 at 168 h: CRFK cells; for CC50: crfk, 168 h
[3] = test system: Feline immunodeficiency virus; assay: Antiviral activity against Feline immunodeficiency virus infected in cat FL-4 cells assessed as viral RNA production by RT-qPCR; type: functional, organism-based
[4] = Therapeutic index, ratio of CC50 for cat CRFK cells to EC50 for Feline immunodeficiency virus infected in cat FL-4 cells; type: cell-based; settings: for selectivity ratio: read-out: Ratio CC50/EC50; for Ratio CC50/EC50: crfk
[5] = Feline immunodeficiency virus, FL-4, read-out: EC50

SMILES: CCn1c2c(=S)ssc2c2ssc(=S)c21
- viability at 24 h, 10 µM [1]: > 100%
- CC50 at 168 h [2]: 20100 nM
- EC50 [3, 5]: 656 nM
- selectivity ratio [4]: 30.6

SMILES: O=C(O)CCN1c2c(ssc2=S)Sc2ssc(=S)c21
- viability at 24 h, 10 µM [1]: 97.2%
- CC50 at 168 h [2]: 1720 nM
- EC50 [3, 5]: 379 nM
- selectivity ratio [4]: 4.5

SMILES: CCN1c2c(ssc2=O)Sc2ssc(=O)c21
- viability at 24 h, 10 µM [1]: 40.2%
- CC50 [2]: ND(toxic)
- EC50 ([3]; fl-4): ND(toxic)
- Ratio CC50/EC50 [4]: ND(toxic)

SMILES: CC(=O)OCCN1c2c(ssc2=O)Sc2ssc(=O)c21
- viability at 24 h, 10 µM [1]: 39.2%
- CC50 [2]: ND(toxic)
- EC50 ([3]; fl-4): ND(toxic)
- Ratio CC50/EC50 [4]: ND(toxic)

SMILES: CCOC(=O)CCN1c2c(ssc2=O)Sc2ssc(=S)c21
- viability at 24 h, 10 µM [1]: 91.2%
- CC50 at 168 h [2]: 2270 nM
- EC50 [3, 5]: 642 nM
- selectivity ratio [4]: 3.5

SMILES: CCOC(=O)CCn1c2c(=O)ssc2c2ssc(=O)c21
- viability at 24 h, 10 µM [1]: 78.2%
- CC50 [2]: ND(toxic)
- EC50 ([3]; fl-4): ND(toxic)
- Ratio CC50/EC50 [4]: ND(toxic)

SMILES: Cc1cn([C@H]2C[C@H](N=[N+]=[N-])[C@@H](CO)O2)c(=O)[nH]c1=O [ZIDOVUDINE]
- viability at 24 h, 10 µM [1]: > 100%
- CC50 at 168 h [2]: > 100000 nM
- EC50 [3, 5]: 5310 nM
- selectivity ratio [4]: > 18.8

Second part, led by results:

- EC50 [3, 5]: < 1 nM
SMILES: CCN1c2c(ssc2=S)Sc2ssc(=S)c21
- viability at 24 h, 10 µM [1]: 98.8%
- CC50 at 168 h [2]: 31 nM
- selectivity ratio [4]: > 31

- EC50 [3, 5]: 16.2 nM
SMILES: CCOC(=O)CCN1c2c(ssc2=O)Sc2ssc(=O)c21
- viability at 24 h, 10 µM [1]: 76.8%
- CC50 at 168 h [2]: 56 nM
- selectivity ratio [4]: 3.5

- EC50 [3, 5]: 345 nM
SMILES: CCN1c2c(ssc2=O)Sc2ssc(=S)c21
- viability at 24 h, 10 µM [1]: > 100%
- CC50 at 168 h [2]: > 10000 nM
- selectivity ratio [4]: > 29

- EC50 [3, 5]: 9.98 nM
SMILES: Cc1nnc(C(=O)NC(C)(C)c2nc(C(=O)NCc3ccc(F)cc3)c(O)c(=O)n2C)o1 [RALTEGRAVIR]
- viability at 24 h, 10 µM [1]: > 100%
- CC50 at 168 h [2]: > 100000 nM
- selectivity ratio [4]: > 100000
